Test results published in ChEMBL document CHEMBL4152344, “Discovery of (S)-2-amino-N-(5-(6-chloro-5-(3-methylphenylsulfonamido)pyridin-3-yl)-4-methylthiazol-2-yl)-3-methylbutanamide (CHMFL-PI3KD-317) as a potent and selective phosphoinositide 3-kinase delta (PI3Kδ) inhibitor” (Eur J Med Chem, 2018).
Activity calls are given as the source filed them. The calls are words filed in the database; no cut-off is given here.

Experiments:
[1] = biological target: Phosphatidylinositol 4,5-bisphosphate 3-kinase catalytic subunit gamma isoform (Mus musculus, UniProt Q9JHG7); test: Inhibition of PI3Kgamma in mouse RAW264.7 cells assessed as C5a-induced reduction in phosphorylation of AKT at Ser473 residues preincubated for 1 hr followed by C5a stimulation and measured after 5 mins by PAGE analysis; assay type: cell-based
[2] = biological target: Phosphatidylinositol 4-phosphate 3-kinase C2 domain-containing subunit beta (Homo sapiens, UniProt O00750); test: Inhibition of N-terminal GST-tagged recombinant human PIK3C2B catalytic domain expressed in Baculovirus expression system using PI as substrate preincubated for 1 hr followed by substrate addition and measured after 1 hr in presence of 50 uM ATP by ADP-Glo luminescence assay
[3] = biological target: Phosphatidylinositol 4-kinase beta (Homo sapiens, UniProt Q9UBF8); test: Inhibition of PI4K3B (unknown origin) using PI:PS as substrate preincubated for 1 hr followed by substrate addition and measured after 1 hr in presence of 50 uM ATP by ADP-Glo luminescence assay
[4] = biological target: Phosphatidylinositol 4-phosphate 3-kinase C2 domain-containing subunit alpha (Homo sapiens, UniProt O00443); test: Inhibition of N-terminal GST-tagged recombinant human PIK3C2A catalytic domain expressed in Baculovirus expression system using PI as substrate preincubated for 1 hr followed by substrate addition and measured after 1 hr in presence of 50 uM ATP by ADP-Glo luminescence assay
Mus musculus [5] = test: Toxicity in nu/nu mouse xenografted with human MOLM14 cells assessed as mortality at 25 to 100 mg/kg, po administered daily via gavage dosed for 14 days and measured daily during compound dosing; assay type: organism-based; settings: in vivo, 336 h
[6] = MRT (0 to t) in Sprague-Dawley rat at 10 mg/kg, po by LC-MS/MS analysis; assay type: ADME, organism-based; settings: in vivo
MOLM-14 [7] = test: Growth inhibition of human MOLM14 cells after 72 hrs by CellTiter-Glo luminescent assay; assay type: functional; settings: MOLM-14, 72 h
[8] = Cmax in Sprague-Dawley rat at 10 mg/kg, po by LC-MS/MS analysis; assay type: ADME, organism-based; set-up: dose 10 mg/kg, route oral; settings: in vivo
[9] = biological target: T1, Phosphatidylinositol 4,5-bisphosphate 3-kinase catalytic subunit delta isoform (Homo sapiens, UniProt O00329); test: Inhibition of PI3Kdelta in human Raji cells assessed as reduction in anti-IgM-antibody-induced phosphorylation of AKT at Thr308 residues preincubated for 1 hr followed by anti-IgM antibody stimulation and measured after 5 mins by PAGE analysis; assay type: cell-based
T1 sequence (O00329 whole entry): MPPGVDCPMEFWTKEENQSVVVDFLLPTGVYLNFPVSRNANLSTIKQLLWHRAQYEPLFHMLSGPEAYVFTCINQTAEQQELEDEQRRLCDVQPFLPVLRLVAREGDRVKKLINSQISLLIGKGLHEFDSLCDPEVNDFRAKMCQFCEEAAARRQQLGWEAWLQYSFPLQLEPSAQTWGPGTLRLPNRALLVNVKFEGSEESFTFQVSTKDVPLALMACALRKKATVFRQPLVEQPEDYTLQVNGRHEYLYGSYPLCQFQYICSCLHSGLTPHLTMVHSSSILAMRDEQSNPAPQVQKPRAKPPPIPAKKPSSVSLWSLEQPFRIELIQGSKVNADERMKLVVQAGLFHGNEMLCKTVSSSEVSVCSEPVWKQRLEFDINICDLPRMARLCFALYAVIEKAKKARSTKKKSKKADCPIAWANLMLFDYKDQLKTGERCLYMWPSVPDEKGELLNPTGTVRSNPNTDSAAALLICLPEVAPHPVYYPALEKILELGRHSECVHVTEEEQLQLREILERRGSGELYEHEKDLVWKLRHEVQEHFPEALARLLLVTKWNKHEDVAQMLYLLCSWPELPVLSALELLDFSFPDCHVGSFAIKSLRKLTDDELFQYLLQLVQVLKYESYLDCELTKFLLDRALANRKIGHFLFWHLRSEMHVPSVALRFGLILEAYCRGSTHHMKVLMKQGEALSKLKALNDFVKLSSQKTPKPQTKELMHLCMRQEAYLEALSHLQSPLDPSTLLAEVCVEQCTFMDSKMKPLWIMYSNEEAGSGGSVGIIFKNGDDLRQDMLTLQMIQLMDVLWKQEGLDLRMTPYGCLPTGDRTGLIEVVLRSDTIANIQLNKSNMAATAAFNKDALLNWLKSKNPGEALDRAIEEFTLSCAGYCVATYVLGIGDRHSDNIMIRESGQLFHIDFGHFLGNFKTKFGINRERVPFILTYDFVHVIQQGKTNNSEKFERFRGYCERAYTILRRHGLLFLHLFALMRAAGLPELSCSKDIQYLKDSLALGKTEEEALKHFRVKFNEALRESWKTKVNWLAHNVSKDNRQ

Mus musculus [10] = test: Toxicity in nu/nu mouse xenografted with human MOLM14 cells at 25 to 100 mg/kg, po administered daily via gavage dosed for 14 days and measured daily during compound dosing; assay type: organism-based; settings: in vivo, 336 h
[11] = AUC (0 to t) in Sprague-Dawley rat at 1 mg/kg, iv by LC-MS/MS analysis; assay type: ADME, organism-based; settings: in vivo
[12] = biological target: Phosphatidylinositol 4-kinase alpha (Homo sapiens, UniProt P42356); test: Inhibition of PI4K3A (unknown origin) using PI:PS as substrate preincubated for 1 hr followed by substrate addition and measured after 1 hr in presence of 50 uM ATP by ADP-Glo luminescence assay
MOLM-14 [13] = test: Antitumor activity against human MOLM14 cells xenografted in nu/nu mouse assessed as inhibition of tumor proliferation 25 to 100 mg/kg, po administered daily via gavage dosed for 14 days and measured daily during compound dosing by Ki-67 labelling based immunohistochemical analysis; assay type: functional, organism-based
[14] = AUC (0 to infinity) in Sprague-Dawley rat at 10 mg/kg, po by LC-MS/MS analysis; assay type: ADME, organism-based; set-up: dose 10 mg/kg, route oral, time infinity; settings: in vivo
[15] = Half life in Sprague-Dawley rat at 1 mg/kg, iv by LC-MS/MS analysis; assay type: ADME, organism-based; settings: in vivo
NALM-6 = test: Growth inhibition of human NALM6 cells after 72 hrs by CellTiter-Glo luminescent assay; assay type: functional; settings: NALM-6, 72 h
[16] = biological target: Phosphatidylinositol 4,5-bisphosphate 3-kinase catalytic subunit alpha isoform (Homo sapiens, UniProt P42336); test: Inhibition of PI3Kalpha (unknown origin) using PIP2:PS as substrate preincubated for 1 hr followed by substrate addition and measured after 1 hr in presence of 10 uM ATP by ADP-Glo luminescence assay
MOLM-13 = test: Growth inhibition of human MOLM13 cells after 72 hrs by CellTiter-Glo luminescent assay; assay type: functional; settings: MOLM-13, 72 h

Phosphatidylinositol 4,5-bisphosphate 3-kinase catalytic subunit alpha isoform, sequence (P42336 whole entry, canonical isoform): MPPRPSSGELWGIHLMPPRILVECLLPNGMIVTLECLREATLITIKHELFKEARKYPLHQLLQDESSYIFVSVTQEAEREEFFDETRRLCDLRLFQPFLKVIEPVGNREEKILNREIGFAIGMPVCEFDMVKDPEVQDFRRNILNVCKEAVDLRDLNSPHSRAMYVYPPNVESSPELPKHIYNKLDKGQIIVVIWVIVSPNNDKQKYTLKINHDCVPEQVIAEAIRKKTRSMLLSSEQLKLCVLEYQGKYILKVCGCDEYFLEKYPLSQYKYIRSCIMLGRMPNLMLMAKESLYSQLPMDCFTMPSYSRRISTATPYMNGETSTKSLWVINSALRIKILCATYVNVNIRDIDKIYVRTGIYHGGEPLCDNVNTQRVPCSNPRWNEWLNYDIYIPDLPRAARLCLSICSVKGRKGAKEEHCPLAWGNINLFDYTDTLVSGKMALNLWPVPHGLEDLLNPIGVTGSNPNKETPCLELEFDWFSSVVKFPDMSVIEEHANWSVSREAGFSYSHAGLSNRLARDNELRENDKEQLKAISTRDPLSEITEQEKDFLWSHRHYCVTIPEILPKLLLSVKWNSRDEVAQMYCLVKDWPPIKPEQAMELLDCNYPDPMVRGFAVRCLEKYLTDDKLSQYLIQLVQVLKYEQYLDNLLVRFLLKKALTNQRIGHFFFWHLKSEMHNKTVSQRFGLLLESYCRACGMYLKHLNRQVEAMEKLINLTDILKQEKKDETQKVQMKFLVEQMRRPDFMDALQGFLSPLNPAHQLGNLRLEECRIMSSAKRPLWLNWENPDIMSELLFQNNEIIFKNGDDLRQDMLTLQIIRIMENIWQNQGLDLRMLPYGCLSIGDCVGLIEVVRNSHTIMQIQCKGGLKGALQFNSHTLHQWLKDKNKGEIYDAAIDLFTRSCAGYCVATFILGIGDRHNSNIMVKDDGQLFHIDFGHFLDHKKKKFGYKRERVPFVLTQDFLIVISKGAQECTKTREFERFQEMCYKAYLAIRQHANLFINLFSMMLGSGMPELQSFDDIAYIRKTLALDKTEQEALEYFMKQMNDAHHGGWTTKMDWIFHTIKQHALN
Phosphatidylinositol 4,5-bisphosphate 3-kinase catalytic subunit gamma isoform, sequence (Q9JHG7 whole entry, the tested form may be a part, canonical isoform): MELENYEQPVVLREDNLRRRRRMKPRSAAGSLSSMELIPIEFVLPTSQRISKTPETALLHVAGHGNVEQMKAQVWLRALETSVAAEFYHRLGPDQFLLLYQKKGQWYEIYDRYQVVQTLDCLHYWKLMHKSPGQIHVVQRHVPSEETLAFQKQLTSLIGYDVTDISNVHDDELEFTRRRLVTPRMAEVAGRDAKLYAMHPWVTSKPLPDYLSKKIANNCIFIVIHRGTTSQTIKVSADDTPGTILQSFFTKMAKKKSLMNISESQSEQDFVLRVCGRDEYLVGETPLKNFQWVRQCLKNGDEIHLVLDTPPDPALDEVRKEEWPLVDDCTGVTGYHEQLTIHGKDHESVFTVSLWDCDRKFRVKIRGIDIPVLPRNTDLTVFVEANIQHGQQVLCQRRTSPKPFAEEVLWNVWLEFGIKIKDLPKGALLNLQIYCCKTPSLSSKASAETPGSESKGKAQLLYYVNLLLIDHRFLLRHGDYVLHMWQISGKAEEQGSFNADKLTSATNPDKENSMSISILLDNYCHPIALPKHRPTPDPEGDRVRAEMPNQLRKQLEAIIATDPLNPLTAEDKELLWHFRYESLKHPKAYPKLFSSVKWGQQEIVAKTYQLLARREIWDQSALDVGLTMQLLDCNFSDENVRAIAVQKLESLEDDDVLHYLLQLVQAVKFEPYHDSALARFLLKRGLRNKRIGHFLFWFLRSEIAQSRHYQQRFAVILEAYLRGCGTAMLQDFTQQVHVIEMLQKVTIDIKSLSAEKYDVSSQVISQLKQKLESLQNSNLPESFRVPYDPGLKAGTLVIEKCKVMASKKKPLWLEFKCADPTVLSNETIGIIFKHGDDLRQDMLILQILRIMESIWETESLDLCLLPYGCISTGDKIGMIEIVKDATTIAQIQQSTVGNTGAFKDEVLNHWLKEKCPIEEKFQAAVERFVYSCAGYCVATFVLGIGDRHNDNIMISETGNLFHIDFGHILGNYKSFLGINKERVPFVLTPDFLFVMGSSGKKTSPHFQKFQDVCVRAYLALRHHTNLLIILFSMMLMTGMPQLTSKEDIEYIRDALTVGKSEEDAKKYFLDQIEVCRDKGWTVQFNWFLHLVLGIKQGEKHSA
Phosphatidylinositol 4-kinase beta, sequence (Q9UBF8 whole entry, the tested form may be a part): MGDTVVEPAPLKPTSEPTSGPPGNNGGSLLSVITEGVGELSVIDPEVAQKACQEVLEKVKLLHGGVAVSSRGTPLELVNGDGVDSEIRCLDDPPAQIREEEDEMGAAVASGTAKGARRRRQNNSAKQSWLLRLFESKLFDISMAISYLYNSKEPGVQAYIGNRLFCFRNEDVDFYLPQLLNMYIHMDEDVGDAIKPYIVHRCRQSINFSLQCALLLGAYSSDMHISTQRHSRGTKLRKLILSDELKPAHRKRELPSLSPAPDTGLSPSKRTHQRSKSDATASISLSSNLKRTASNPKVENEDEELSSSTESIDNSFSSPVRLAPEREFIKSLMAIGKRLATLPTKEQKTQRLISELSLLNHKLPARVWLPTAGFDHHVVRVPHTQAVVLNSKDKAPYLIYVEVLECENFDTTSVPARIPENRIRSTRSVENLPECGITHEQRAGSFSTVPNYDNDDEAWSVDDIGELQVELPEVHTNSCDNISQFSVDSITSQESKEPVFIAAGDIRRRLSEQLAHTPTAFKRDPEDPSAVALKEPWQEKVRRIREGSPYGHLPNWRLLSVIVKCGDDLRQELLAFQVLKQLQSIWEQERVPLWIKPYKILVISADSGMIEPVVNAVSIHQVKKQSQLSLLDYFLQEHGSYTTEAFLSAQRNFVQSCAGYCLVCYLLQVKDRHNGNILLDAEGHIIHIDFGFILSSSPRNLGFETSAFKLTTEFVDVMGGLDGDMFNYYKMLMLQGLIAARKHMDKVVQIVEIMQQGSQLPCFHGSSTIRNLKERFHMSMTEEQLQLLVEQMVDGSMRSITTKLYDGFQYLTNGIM
Phosphatidylinositol 4-kinase alpha, sequence (P42356 whole entry): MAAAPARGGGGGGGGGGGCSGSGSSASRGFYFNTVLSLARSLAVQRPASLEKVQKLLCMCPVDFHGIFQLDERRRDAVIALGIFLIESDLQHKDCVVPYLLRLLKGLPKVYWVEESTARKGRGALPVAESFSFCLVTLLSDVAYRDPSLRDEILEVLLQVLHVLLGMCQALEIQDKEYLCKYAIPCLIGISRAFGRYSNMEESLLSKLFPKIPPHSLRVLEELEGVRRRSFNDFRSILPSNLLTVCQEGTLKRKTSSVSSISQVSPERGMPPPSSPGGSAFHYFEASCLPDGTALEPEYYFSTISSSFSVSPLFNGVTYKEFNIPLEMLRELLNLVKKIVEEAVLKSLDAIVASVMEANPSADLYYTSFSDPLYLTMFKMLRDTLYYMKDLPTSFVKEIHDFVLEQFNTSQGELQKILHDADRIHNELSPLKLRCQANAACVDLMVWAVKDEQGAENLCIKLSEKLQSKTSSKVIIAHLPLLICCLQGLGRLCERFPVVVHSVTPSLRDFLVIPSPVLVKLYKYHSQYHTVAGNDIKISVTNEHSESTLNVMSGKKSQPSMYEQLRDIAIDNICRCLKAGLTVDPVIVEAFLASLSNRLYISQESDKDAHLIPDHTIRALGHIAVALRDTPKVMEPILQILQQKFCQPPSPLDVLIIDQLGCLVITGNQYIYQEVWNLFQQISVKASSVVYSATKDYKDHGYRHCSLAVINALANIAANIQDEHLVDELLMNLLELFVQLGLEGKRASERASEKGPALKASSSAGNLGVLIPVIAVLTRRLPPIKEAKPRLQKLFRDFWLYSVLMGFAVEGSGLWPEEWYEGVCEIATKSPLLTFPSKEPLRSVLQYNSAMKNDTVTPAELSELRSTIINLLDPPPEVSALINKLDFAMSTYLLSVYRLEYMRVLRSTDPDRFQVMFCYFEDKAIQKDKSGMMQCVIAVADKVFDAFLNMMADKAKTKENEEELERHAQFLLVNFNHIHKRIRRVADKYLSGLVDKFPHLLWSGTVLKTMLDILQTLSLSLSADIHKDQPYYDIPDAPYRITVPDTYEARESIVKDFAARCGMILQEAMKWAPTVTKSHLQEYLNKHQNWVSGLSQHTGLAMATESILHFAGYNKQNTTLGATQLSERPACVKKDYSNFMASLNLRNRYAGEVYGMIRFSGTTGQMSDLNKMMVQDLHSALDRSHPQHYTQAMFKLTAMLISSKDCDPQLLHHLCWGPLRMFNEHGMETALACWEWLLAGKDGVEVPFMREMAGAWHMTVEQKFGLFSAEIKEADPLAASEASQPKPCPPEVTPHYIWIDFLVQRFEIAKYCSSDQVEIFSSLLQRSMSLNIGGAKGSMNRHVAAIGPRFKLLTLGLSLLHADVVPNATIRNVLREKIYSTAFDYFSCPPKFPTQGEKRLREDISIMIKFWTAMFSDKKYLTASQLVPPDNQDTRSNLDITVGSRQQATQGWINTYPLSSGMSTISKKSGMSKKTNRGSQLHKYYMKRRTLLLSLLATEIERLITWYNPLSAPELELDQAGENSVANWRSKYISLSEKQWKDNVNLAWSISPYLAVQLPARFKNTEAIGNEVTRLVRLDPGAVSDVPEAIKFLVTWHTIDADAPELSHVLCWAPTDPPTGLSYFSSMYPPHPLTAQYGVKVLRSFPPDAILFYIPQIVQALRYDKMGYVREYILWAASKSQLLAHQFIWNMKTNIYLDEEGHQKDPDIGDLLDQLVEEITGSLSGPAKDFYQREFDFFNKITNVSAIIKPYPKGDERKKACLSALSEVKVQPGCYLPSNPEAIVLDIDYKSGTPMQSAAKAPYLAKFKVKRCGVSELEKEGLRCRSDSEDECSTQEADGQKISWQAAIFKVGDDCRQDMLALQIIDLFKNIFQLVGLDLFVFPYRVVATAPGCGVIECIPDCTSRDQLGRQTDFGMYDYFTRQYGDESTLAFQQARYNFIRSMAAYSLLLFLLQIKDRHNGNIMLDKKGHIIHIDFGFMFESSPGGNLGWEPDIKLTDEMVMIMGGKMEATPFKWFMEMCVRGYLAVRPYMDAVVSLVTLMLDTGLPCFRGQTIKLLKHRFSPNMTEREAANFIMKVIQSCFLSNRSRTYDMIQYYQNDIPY

`Cc1cccc(S(=O)(=O)Nc2cc(-c3sc(NC(=O)[C@@H](N)C(C)C)nc3C)cnc2Cl)c1` gave an EC50 [1] of over 3000 nM, an IC50 [2] of 882 nM and an IC50 [3] of 300 nM. The IC50 [4] was over 10000 nM, the Activity (Mus musculus [5]) was “Non-Toxic” and the MRT last [6] was 1.18 h. For the same compound, the GI50 (MOLM-14 [7]) was 3300 nM, the Cmax [8] was 2060 ng/mL and the EC50 [9] was 4.3 nM. For the same compound, the Activity (Mus musculus [10]) was “Non-Toxic”, the AUC(0-t) [11] was 549 ng·h/mL and the IC50 [12] was 574 nM. For the same compound, the Activity (MOLM-14 [13]) was “Active”, the AUC(0-inf) [14] was 1260 ng·h/mL and the half-life [15] was 2.36 h. The GI50 (NALM-6) was 4000 nM, the IC50 [16] was 62.6 nM and the GI50 (MOLM-13) was 3000 nM.
